According to patent publication US20250367145A1, “COMPOUNDS FOR USE IN THE TREATMENT OF KIDNEY DISEASES” (Universitätsmedizin Greifswald, priority 2022, published 2025):

Tests used:
[1] = test system: Tg(nphs2:GAL4-VP16); Tg(UAS:Eco.nfsB-mCherry) zebrafish larvae; experiment: Edema progression in zebrafish larvae after MTZ podocyte injury (FSGS model), edema types 1-4; format: in vivo; settings: for edema progression/formation at 10 μM: 10 μM compound in conjunction with MTZ, compared to MTZ group; for edema progression/formation at 10 μM / most effective concentration for prevention of proteinuric edema: until 8 dpf; for lethality at 100 μM: 100 μM compound in conjunction with MTZ (2 days); for effect in terms of proteinuric edema progression/formation: injury model, in conjunction with MTZ; for progression of podocyte injury induced in the disease model: zebrafish larvae model of FSGS, effects concentration-dependent; for most effective concentration for prevention of proteinuric edema: different concentrations in conjunction with MTZ
Protocol: The results are depicted in FIG. 4. A treatment for 48 hours from 4 to 6 dpf with MTZ induces edema formation of four different severities in this strain, scaling from type 1=no edema to type 4=severe edema (FIG. 3). Edema severity of larvae treated with DMSO, MTZ and MTZ plus 1 μM, 10 μM or 100 μM belinostat was categorized at 6, 7 and 8 dpf (FIG. 4). […] Co-treatment with MTZ and 100 μM belinostat induced edema formation in 15% of larvae with 0% type 4 edema in contrast to 60% edema with 31% type 4 edema in the MTZ group. At 7 dpf, progression of edema formation was decelerated in all three groups for all three types of edema that received belinostat, again in a dose-dependent manner. MTZ caused type 4 edema in 56.4% of larvae at 7 dpf, contrary to 1.9% edema in the MTZ+100 μM belinostat group. […] 83.6% of larvae treated with MTZ developed edema with 58.2% showing type 4 edema. […] 10 μM belinostat+MTZ induced edema 80% of larvae with 34.5% type 4 edema. Co-treatment of MTZ with 100 μM belinostat caused edema formation in 64.2% of larvae with 28.3% type 4 edema (FIG. 4).
FIG. 3 depicts the different degrees of podocyte injury progression: 1: no edema, 2: slight edema, 3: moderate edema, 4: severe edema. Black arrowheads show periocular and blank arrowheads depict abdominal edema. Scale bar: 500 μm.
FIG. 4 depicts the results of Example 3, measuring the edema progression in larvae that were treated with different concentrations of belinostat in conjunction with MTZ. Edema progression was measured according to the categories of in larvae until 8 dpf following MTZ injury with various concentration of belinostat (DMSO n=52, MTZ n=55, MTZ+1 μM belinostat n=52, MTZ+10 μM belinostat n=55, MTZ+100 μM belinostat n=53).

[2] = test system: podocytes / glomerular filtration barrier of MTZ-injured zebrafish larvae; experiment: Zebrafish larvae podocyte injury screening: vascular eGFP (proteinuria) and glomerular mCherry (podocyte depletion) fluorescence ratios; settings: for podocyte protection in drug library screen: co-treatment 80 μM MTZ + 100 μM compound, 24 h from 4 to 5 dpf, 12 larvae per compound
Protocol: Groups of 12 larvae from one clutch were distributed into a 24-well plate (#662160 Greiner, Frickenhausen, Germany). For each clutch, 12 larvae were treated with 0.2% DMSO in E3 as negative control and 12 larvae were treated with 80 μM Metronidazole (MTZ) in DMSO in E3 as injury control and comparison group. The Fraunhofer ScreeningPort IME provided an epigenetic drug library which was used for this screening (Table 1). […] The treatment volume was 400 μl for each well with 12 larvae, the wells were sealed with Adhesive Clear PCR Seal (#600208, Biozym Scientific GMBH, Hessisch-Oldendorf) in order to prevent evaporation and plates were incubated at 28.5° C., wrapped in aluminum foil to prevent effects of light. After 24 hours, compounds were washed out in three changes of 0.5×E3.
After washout at 5 dpf, E3 in the 12-well plate was replaced with E3 containing 0.4 mg/ml tricaine. Larvae were then individually transferred into wells of a 96-well plate (#644101, Greiner) which was prepared with custom agarose molds. For the molds, 45 μl of 0.7% boiling hot agarose (Biozym LE agarose) were transferred with a multichannel pipette into each well. After 3 min cooldown, a custom 3D printed orientation tool (Wittbrodt, Jonas N., Urban Liebel, and Jochen Gehrig. “Generation of orientation tools for automated zebrafish screening assays using desktop 3D printing.” BMC biotechnology 14.1 (2014): 1-6) was inserted into the agarose which produced cavities for orientation. Each larva was transferred with 100 μl tricaine containing E3 into the single wells of the 96-well plate (Row A was always 12×DMSO, Row B was always 12×MTZ, Row C-H were compounds+MTZ) and was then oriented laterally in the molds with a short piece of fishing line glued to a bend injection needle under the stereomicroscope manually with special attention to a flat caudal region.
Image acquisition for the screening was performed with an Imaging Machine ([…] Imaging GmbH, Heidelberg, Germany). […] Overview images of each laterally oriented larva were obtained with a 2× objective (40% LED intensity, 30 ms integration). For each larva, a region of interest (ROI) at the tail region caudal of the cloaca was selected with the Acquifer PlateViewer (V1.7.1, […]) for the 10× objective in order to image the blood flow and vasculature. After creating custom modificated imaging scripts via FIJI (Schindelin, Johannes, et al. “Fiji: an open-source platform for biological-image analysis.” Nature methods 9.7 (2012): 676-682), 10 consecutive brightfield frames at a framerate of 33 Hz were acquired (10× objective, 100% LED intensity, 30 ms integration) followed by one frame at 470 nm (10× objective, 50% LED intensity, 50 ms integration). […] The focal plane for both acquisitions was detected with a built-in two-step software autofocus (10× objective, 2×2 binning, 10% LED intensity, 10 ms integration, first step: 31 slices with 50 μm distance, second step: 10 slices with 10 μm slice distance, brightfield for the caudal vasculature, 555 nm for glomerular mCherry).
Following image acquisition, tricaine-containing E3 was washed out two times of each well and replaced by 150 μl E3. […] In this way, two values for the vascular eGFP fluorescence and two values for the glomerular mCherry fluorescence were obtained for each individual larva.

[3] = test system: wildtype (AB/TU strain) zebrafish larvae; experiment: Toxicity of belinostat treatment on wildtype zebrafish larvae; format: in vivo; settings: 250 μM belinostat, treated for 48 hours, at day 8
Protocol: Larvae were treated for 48 hours and edema as well as malformations were assessed until 8 dpf.

Mice (C57BL/6) = experiment: NTS (nephrotoxic serum) induced glomerular injury in mice, plasma creatinine; format: in vivo, mouse; settings: NTS with low dose belinostat (25 mg/kg) compared to NTS injury group
Protocol: Mice (C57BL/6) were treated with PBS (healthy control), NTS (nephrotoxic serum, injury control), NTS with low dose belinostat (25 mg/kg) and NTS with high dose belinostat (50 mg/kg).

[4] = 10 μM compound + 80 μM MTZ vs MTZ alone

`CC(C)[C@H](C(=O)Nc1ccc(C(=O)NO)cc1)c1ccccc1` [AR-42, N-hydroxy-4-[[(2S)-3-methyl-2-phenylbutanoyl]amino]benzamide] was tested, and the “edema progression/formation at 10 μM” value [1] was “able to prevent proteinuric edema”, the “lethality at 100 μM” value [1] was “lethal” and the “effect in terms of proteinuric edema progression/formation” value [1] was “protective effect”. The “progression of podocyte injury induced in the disease model” value (“progression of podocyte injury induced” for short) [1] was “significantly slowed the progression of podocyte injury”.

In the case of `O=C(/C=C/c1ccc(CN(CCO)CCc2c[nH]c3ccccc23)cc1)NO` [Dacinostat, (E)-N-hydroxy-3-[4-[[2-hydroxyethyl-[2-(1H-indol-3-yl)ethyl]amino]methyl]phenyl]prop-2-enamide], the “edema progression/formation at 10 μM” value [1] is reported as “successfully prevented edema formation”, the “lethality at 100 μM” value [1] is reported as “lethal” and the “effect in terms of proteinuric edema progression/formation” value [1] is reported as “protective effect”. For the same compound, the “progression of podocyte injury induced” value [1] was “significantly slowed the progression of podocyte injury”.

`O=C(/C=C/C#Cc1cccc(NS(=O)(=O)c2ccccc2)c1)NO` [oxamflatin, 5-[3-(benzenesulfonamido)phenyl]-N-hydroxypent-2-en-4-ynamide] was tested, and the “podocyte protection in drug library screen” value [2] was “podocyte-protective”, the “most effective concentration for prevention of proteinuric edema” value [1] was 100 µM and the “progression of podocyte injury induced” value [1] was “significantly slowed the progression of podocyte injury”.

`C#Cc1cccc(Nc2ncnc3cc(OC)c(OCCCCCCC(=O)NO)cc23)c1` [CUDC-101, 7-[4-(3-ethynylanilino)-7-methoxyquinazolin-6-yl]oxy-N-hydroxyheptanamide] was tested, and the “most effective concentration for prevention of proteinuric edema” value [1] was 10 µM, the “effect in terms of proteinuric edema progression/formation” value [1] was “protective effect” and the “progression of podocyte injury induced” value [1] was “significantly slowed the progression of podocyte injury”.

With `O=C(/C=C/c1cccc(S(=O)(=O)Nc2ccccc2)c1)NO` [belinostat, (2E)-N-hydroxy-3-[3-(phenylsulfamoyl)phenyl]prop-2-enamide] the “larvae for which treatment is lethal” value [3] was 35%, the plasma creatinine concentration (Mice (C57BL/6)) was “reduce plasma creatine concentrations significantly” and the “loss of podocyte mCherry fluorescence (glomerular fluorescence ratio 6 dpf/5 dpf)” value [2, 4] was “significantly reduced loss of podocyte mCherry fluorescence”. The “renal leakage of 78 kDa VDP-eGFP through the glomerular filtration barrier (vascular eGFP fluorescence ratio 6 dpf/5 dpf)” value [2, 4] was “could prevent the renal leakage”, the “harmful effect on the glomerular filtration barrier or podocyte vitality” value ([2]; 10 μM compound alone, without MTZ injury) was “no harmful effect” and the “podocyte protection in drug library screen” value [2] was “podocyte-protective”. The “larvae with type 4 edema” value ([1]; MTZ + 1 μM belinostat, 8 dpf (MTZ group 58.2%)) was 44.2%, the “larvae with edema formation” value ([1]; MTZ + 1 μM belinostat, 8 dpf (MTZ group 83.6%)) was 80.8% and the “larvae with type 4 edema” value ([1]; MTZ + 10 μM belinostat, 8 dpf (MTZ group 58.2%)) was 34.5%. For the same compound, the “larvae with edema formation” value ([1]; MTZ + 10 μM belinostat, 8 dpf (MTZ group 83.6%)) was 80%, the “larvae with type 4 edema” value ([1]; MTZ + 100 μM belinostat, 6 dpf (MTZ group 31%)) was 0% and the “larvae with edema formation” value ([1]; MTZ + 100 μM belinostat, 6 dpf (MTZ group 60%)) was 15%. The “larvae with edema (contrasted with type 4 edema of MTZ group)” value ([1]; MTZ + 100 μM belinostat, 7 dpf (MTZ group type 4 edema 56.4%)) was 1.9%, the “larvae with type 4 edema” value ([1]; MTZ + 100 μM belinostat, 8 dpf (MTZ group 58.2%)) was 28.3% and the “larvae with edema formation” value ([1]; MTZ + 100 μM belinostat, 8 dpf (MTZ group 83.6%)) was 64.2%. The “progression of edema formation” value ([1]; MTZ + 1, 10 or 100 μM belinostat, 7 dpf, dose-dependent) was “decelerated”, the “number of larvae with type 3 and 4 edema” value ([1]; MTZ + 1, 10 or 100 μM belinostat, after washout at 6 dpf, dose-dependent) was “reduced number of larvae with type 3 and 4 edema” and the “edema progression with continuous treatment” value ([1]; MTZ from 4-6 dpf and continuously belinostat until 8 dpf, vs belinostat until day 6) was “ameliorated most”. For the same compound, the “delay in edema formation” value ([1]; belinostat treatment groups, 8 dpf) was “stayed consistent” and the “progression of podocyte injury induced” value [1] was “significantly slowed the progression of podocyte injury”.

In the case of `O=C(CCCCCN1C(=O)c2cccc3cccc(c23)C1=O)NO` [Scriptaid, 6-(1,3-Dioxo-1H,3H-benzo[de]isoquinolin-2-yl)-N-hydroxyhexanamide], the “edema progression/formation at 10 μM” value [1] is reported as “successfully prevented edema progression”, the “lethality at 100 μM” value [1] is reported as “in the lethal range” and the “effect in terms of proteinuric edema progression/formation” value [1] is reported as “protective effect”. For the same compound, the “progression of podocyte injury induced” value [1] was “significantly slowed the progression of podocyte injury”.

`O=C(CCCCCCC(=O)Nc1ccccc1)NO` [Vorinostat, N′-hydroxy-N-phenyloctanediamide] was tested, and the “formation of moderate (type 3) edema” value ([1]; 100 μM compound in conjunction with MTZ, 6 dpf) was “able to prevent formation of moderate edema”, the “effect in terms of proteinuric edema progression/formation” value [1] was “protective effect” and the “progression of podocyte injury induced” value [1] was “significantly slowed the progression of podocyte injury”.
